Laboratory results published in US20100069380A1 (published 2010).

Q: With `Nc1ccc(Sc2c(O)c3c(=O)n(-c4ccccc4)c4ccccc4c3oc2=O)cc1` as the molecule, how does the melting point read?
A: > 300 °C
